Results published in ChEMBL document CHEMBL1201861, “Genomics of Drug Sensitity in Cancer screening data, Wellcome Trust Sanger Institute”.

Tests used:
CP50-MEL-B = experiment: cells; format: functional, cell-based; conditions: Homo sapiens;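 further: growth inhibition of the human cell line, measured with a cell viability read-out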
Description: SANGER: Inhibition of human CP50-MEL-B cell growth in a cell viability assay.

DK-MG = experiment: cells; format: functional, cell-based; conditions: Homo sapiens;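 further: growth inhibition of DK-MG cells, read out with a cell viability assay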
Description: SANGER: Inhibition of human DK-MG cell growth in a cell viability assay.

EGI-1 = experiment: cells; format: functional, cell-based; conditions: Homo sapiens;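 further: cell viability readout used to gauge growth inhibition of EGI-1 cells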
Description: SANGER: Inhibition of human EGI-1 cell growth in a cell viability assay.

ESS-1 = experiment: cells; format: functional, cell-based; conditions: Homo sapiens;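 further: growth inhibition of human ESS-1 cells, read out by a cell viability assay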
Description: SANGER: Inhibition of human ESS-1 cell growth in a cell viability assay.

HCC1395 = experiment: cells; format: functional, cell-based; conditions: Homo sapiens;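 further: growth inhibition of HCC1395 cells, read out by a cell viability assay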
Description: SANGER: Inhibition of human HCC1395 cell growth in a cell viability assay.

HCC1599 = experiment: cells; format: functional, cell-based, Homo sapiens; conditions: Homo sapiens, HCC1599;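 further: growth inhibition of HCC1599 cells, read out in a cell viability assay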
Description: SANGER: Inhibition of human HCC1599 cell growth in a cell viability assay.

HCC1937 = experiment: cells; format: functional, cell-based; conditions: Homo sapiens;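 further: growth inhibition measured with a cell viability read-out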
Description: SANGER: Inhibition of human HCC1937 cell growth in a cell viability assay.

HSC-2 = experiment: cells; format: functional, cell-based; conditions: Homo sapiens;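 further: growth inhibition of human HSC-2 cells, read out by a cell viability assay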
Description: SANGER: Inhibition of human HSC-2 cell growth in a cell viability assay.

HuP-T3 = experiment: cells; format: functional, cell-based; conditions: Homo sapiens;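 further: HuP-T3 cell growth inhibition, read out with a cell viability assay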
Description: SANGER: Inhibition of human HuP-T3 cell growth in a cell viability assay.

IM-9 = experiment: SANGER: Inhibition of human IM-9 cell growth in a cell viability assay.; format: functional, cell-based; conditions: Homo sapiens, IM-9
IMR-5 = experiment: cells; format: functional, cell-based, Homo sapiens; conditions: Homo sapiens, IMR-5; read-out: IC50;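 further: growth inhibition of human IMR-5 cells, read out with a cell viability assay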
Description: SANGER: Inhibition of human IMR-5 cell growth in a cell viability assay.

Kasumi 1 = experiment: cells; format: functional, cell-based, Homo sapiens; conditions: Homo sapiens, Kasumi 1;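 further: growth inhibition of human Kasumi-1 cells, read out by a cell viability assay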
Description: SANGER: Inhibition of human KASUMI-1 cell growth in a cell viability assay.

KU-19-19 = experiment: cells; format: functional, cell-based; conditions: Homo sapiens
Description: SANGER: Inhibition of human KU-19-19 cell growth in a cell viability assay.

KYSE-270 = experiment: cells; format: functional, cell-based; conditions: Homo sapiens;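 further: cell growth inhibition measured with a viability assay in the human KYSE-270 line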
Description: SANGER: Inhibition of human KYSE-270 cell growth in a cell viability assay.

KYSE-450 = experiment: cells; format: functional, cell-based; conditions: Homo sapiens;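 further: cell growth inhibition measured by a viability assay in human KYSE-450 cells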
Description: SANGER: Inhibition of human KYSE-450 cell growth in a cell viability assay.

LB647-SCLC = experiment: cells; format: functional, cell-based, Homo sapiens; conditions: Homo sapiens, LB647-SCLC;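 further: cell growth inhibition, read out by a viability assay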
Description: SANGER: Inhibition of human LB647-SCLC cell growth in a cell viability assay.

LK-2 = experiment: cells; format: functional, cell-based; conditions: Homo sapiens;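 further: growth inhibition of LK-2 cells, read out with a viability assay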
Description: SANGER: Inhibition of human LK-2 cell growth in a cell viability assay.

LU-165 = experiment: cells; format: functional, cell-based, Homo sapiens; conditions: Homo sapiens, LU-165
Description: SANGER: Inhibition of human LU-165 cell growth in a cell viability assay.

M14 = experiment: cells; format: functional, cell-based; conditions: Homo sapiens;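 further: growth inhibition of M14 cells, read out with a cell viability assay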
Description: SANGER: Inhibition of human M14 cell growth in a cell viability assay.

MCF7 = experiment: cells; format: functional, cell-based; conditions: Homo sapiens;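 further: growth inhibition of human MCF7 cells, read out with a cell viability assay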
Description: SANGER: Inhibition of human MCF7 cell growth in a cell viability assay.

MDA-MB-175-VII = experiment: cells; format: functional, cell-based; conditions: Homo sapiens
MEL-HO = experiment: cells; format: functional, cell-based; conditions: Homo sapiens
Description: SANGER: Inhibition of human MEL-HO cell growth in a cell viability assay.

MFE-280 = experiment: cells; format: functional, cell-based; conditions: Homo sapiens;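 further: growth inhibition of MFE-280 cells, determined with a cell viability readout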
Description: SANGER: Inhibition of human MFE-280 cell growth in a cell viability assay.

MFH-ino = experiment: cells; format: functional, cell-based, Homo sapiens; conditions: Homo sapiens, MFH-ino;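 further: growth inhibition of human MFH-ino cells, read out by a cell viability assay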
Description: SANGER: Inhibition of human MFH-ino cell growth in a cell viability assay.

MHH-ES-1 = experiment: cells; format: functional, cell-based; conditions: Homo sapiens
Description: SANGER: Inhibition of human MHH-ES-1 cell growth in a cell viability assay.

NCI-H1436 = experiment: cells; format: functional, cell-based, Homo sapiens; conditions: Homo sapiens, NCI-H1436;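 further: growth suppression of human NCI-H1436 cells, determined with a cell viability readout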
Description: SANGER: Inhibition of human NCI-H1436 cell growth in a cell viability assay.

NCI-H1792 = experiment: cells; format: functional, cell-based; conditions: Homo sapiens;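 further: growth inhibition of human NCI-H1792 cells, read out as cell viability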
Description: SANGER: Inhibition of human NCI-H1792 cell growth in a cell viability assay.

NCI-H187 = experiment: cells; format: functional, cell-based, Homo sapiens; conditions: Homo sapiens, NCI-H187;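 further: growth inhibition of NCI-H187 cells, read out as cell viability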
Description: SANGER: Inhibition of human NCI-H187 cell growth in a cell viability assay.

NCI-H1963 = experiment: cells; format: functional, cell-based, Homo sapiens; conditions: Homo sapiens, NCI-H1963;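 further: cell growth inhibition of the human line, determined with a cell viability assay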
Description: SANGER: Inhibition of human NCI-H1963 cell growth in a cell viability assay.

NCI-H2122 = experiment: cells; format: functional, cell-based; conditions: Homo sapiens;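 further: growth inhibition of the cells, read out with a cell viability assay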
Description: SANGER: Inhibition of human NCI-H2122 cell growth in a cell viability assay.

NCI-H2170 = experiment: cells; format: functional, cell-based; conditions: Homo sapiens;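 further: cell viability assay measuring growth inhibition of human NCI-H2170 cancer cells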
Description: SANGER: Inhibition of human NCI-H2170 cell growth in a cell viability assay.

NCI-H2342 = experiment: cells; format: functional, cell-based; conditions: Homo sapiens;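 further: growth inhibition of the cancer cell line, determined with a cell viability assay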
Description: SANGER: Inhibition of human NCI-H2342 cell growth in a cell viability assay.

NCI-H292 = experiment: cells; format: functional, cell-based; conditions: Homo sapiens;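 further: growth inhibition of NCI-H292 cells, read out with a cell viability assay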
Description: SANGER: Inhibition of human NCI-H292 cell growth in a cell viability assay.

NCI-H522 = experiment: cells; format: functional, cell-based; conditions: Homo sapiens;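 further: cell viability assay measuring growth inhibition of human NCI-H522 cells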
Description: SANGER: Inhibition of human NCI-H522 cell growth in a cell viability assay.

NCI-H810 = experiment: cells; format: functional, cell-based; conditions: Homo sapiens;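 further: IC50 reflects inhibition of cancer cell line growth, read out with a cell viability assay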
Description: SANGER: Inhibition of human NCI-H810 cell growth in a cell viability assay.

OVCAR-3 = experiment: cells; format: functional, cell-based; conditions: Homo sapiens;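 further: growth inhibition of human OVCAR-3 cells, determined by a cell viability assay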
Description: SANGER: Inhibition of human OVCAR-3 cell growth in a cell viability assay.

OVCAR-5 = experiment: cells; format: functional, cell-based; conditions: Homo sapiens;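 further: growth inhibition of human OVCAR-5 cells, read out with a cell viability assay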
Description: SANGER: Inhibition of human OVCAR-5 cell growth in a cell viability assay.

P12-Ichikawa = experiment: cells; format: functional, cell-based; conditions: Homo sapiens
PA-1 = experiment: cells; format: functional, cell-based; conditions: Homo sapiens;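 further: IC50 for suppression of PA-1 cell proliferation, determined with a cell viability read-out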
Description: SANGER: Inhibition of human PA-1 cell growth in a cell viability assay.

PANC-08-13 = experiment: cells; format: functional, cell-based; conditions: Homo sapiens
Description: SANGER: Inhibition of human PANC-08-13 cell growth in a cell viability assay.

RCM-1 = experiment: cells; format: functional, cell-based; conditions: Homo sapiens;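 further: growth inhibition of the RCM-1 line, determined with a cell viability readout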
Description: SANGER: Inhibition of human RCM-1 cell growth in a cell viability assay.

RL = experiment: cells; format: functional, cell-based, Homo sapiens; conditions: Homo sapiens, RL
Description: SANGER: Inhibition of human RL cell growth in a cell viability assay.

SAS = experiment: cells; format: functional, cell-based; conditions: Homo sapiens;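 further: growth inhibition of SAS cells, read out with a cell viability assay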
Description: SANGER: Inhibition of human SAS cell growth in a cell viability assay.

SCC-4 = experiment: cells; format: functional, cell-based; conditions: Homo sapiens;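 further: growth inhibition of human SCC-4 cells, read out as cell viability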
Description: SANGER: Inhibition of human SCC-4 cell growth in a cell viability assay.

SK-MM-2 = experiment: cells; format: functional, cell-based, Homo sapiens; conditions: Homo sapiens, SK-MM-2;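 further: growth inhibition of human SK-MM-2 cells, read out with a cell viability assay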
Description: SANGER: Inhibition of human SK-MM-2 cell growth in a cell viability assay.

SW1088 = experiment: cells; format: functional, cell-based; conditions: Homo sapiens;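 further: growth inhibition of human SW1088 cells, read out by a cell viability assay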
Description: SANGER: Inhibition of human SW1088 cell growth in a cell viability assay.

SW1573 = experiment: cells; format: functional, cell-based; conditions: Homo sapiens;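 further: growth inhibition of SW1573 cells, read out with a cell viability assay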
Description: SANGER: Inhibition of human SW1573 cell growth in a cell viability assay.

SW1783 = experiment: cells; format: functional, cell-based; conditions: Homo sapiens
Description: SANGER: Inhibition of human SW1783 cell growth in a cell viability assay.

SW48 = experiment: cells; format: functional, cell-based; conditions: Homo sapiens;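 further: growth inhibition of SW48 cells, read out with a cell viability assay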
Description: SANGER: Inhibition of human SW48 cell growth in a cell viability assay.

SW780 = experiment: cells; format: functional, cell-based; conditions: Homo sapiens;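 further: growth inhibition of the cells, read out with a cell viability assay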
Description: SANGER: Inhibition of human SW780 cell growth in a cell viability assay.

T84 = experiment: cells; format: functional, cell-based; conditions: Homo sapiens;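 further: growth inhibition measured with a cell viability readout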
Description: SANGER: Inhibition of human T84 cell growth in a cell viability assay.

639-V = experiment: cells; format: functional, cell-based; conditions: Homo sapiens;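 further: growth inhibition of 639-V cells, read out with a cell viability assay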
Description: SANGER: Inhibition of human 639-V cell growth in a cell viability assay.

8305C = experiment: cells; format: functional, cell-based; conditions: Homo sapiens
Description: SANGER: Inhibition of human 8305C cell growth in a cell viability assay.

A-427 = experiment: cells; format: functional, cell-based; conditions: Homo sapiens;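 further: growth inhibition of human A-427 cells, read out by a cell viability assay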
Description: SANGER: Inhibition of human A427 cell growth in a cell viability assay.

CAKI-1 = experiment: cells; format: functional, cell-based; conditions: Homo sapiens;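 further: growth inhibition of CAKI-1 cells, measured by a cell viability assay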
Description: SANGER: Inhibition of human CAKI-1 cell growth in a cell viability assay.

CAL-148 = experiment: cells; format: functional, cell-based, Homo sapiens; conditions: Homo sapiens, CAL-148
Description: SANGER: Inhibition of human CAL-148 cell growth in a cell viability assay.

CAL-62 = experiment: cells; format: functional, cell-based; conditions: Homo sapiens;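 further: growth inhibition of CAL-62 cells, read out with a cell viability assay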
Description: SANGER: Inhibition of human CAL-62 cell growth in a cell viability assay.

U-251 = experiment: cells; format: functional, cell-based; conditions: Homo sapiens;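 further: growth inhibition of human U-251 cells, read out through a cell viability assay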
Description: SANGER: Inhibition of human U251 cell growth in a cell viability assay.

VMRC-RCZ = experiment: cells; format: functional, cell-based; conditions: Homo sapiens
Description: SANGER: Inhibition of human VMRC-RCZ cell growth in a cell viability assay.

COLO-679 = experiment: cells; format: functional, cell-based; conditions: Homo sapiens
Description: SANGER: Inhibition of human COLO-679 cell growth in a cell viability assay.

Measured: IC50

O=S(=O)(O)c1ccc2cc(/N=N/c3cc(S(=O)(=O)O)c4cccnc4c3O)ccc2c1
> 16 µM: all assays above

CCCCCCCCCCCC1=C(O)C(=O)C=C(O)C1=O [EMBELIN]
7.4 µM: HSC-2
23.6 µM: OVCAR-3
8.35 µM: MCF7
11 µM: M14
8.63 µM: HCC1937
2.81 µM: NCI-H2122
15.7 µM: MFE-280
17.4 µM: SCC-4
2.32 µM: PA-1
7.73 µM: NCI-H810
31.1 µM: SW48
16.7 µM: SW1088
16.8 µM: SAS
5.58 µM: MFH-ino
9.87 µM: T84
12.1 µM: NCI-H2170
23.1 µM: EGI-1 | NCI-H1792
25.7 µM: 8305C
4.2 µM: COLO-679
6.99 µM: NCI-H2342
5.11 µM: MEL-HO
9.45 µM: P12-Ichikawa
17.7 µM: KYSE-450 | NCI-H522
9.69 µM: U-251
15.8 µM: MHH-ES-1
22.4 µM: RCM-1
18 µM: LK-2
9.04 µM: HCC1599
8.86 µM: KYSE-270
9.42 µM: ESS-1
23.3 µM: CAL-62
10.1 µM: SW1783
29.4 µM: NCI-H292
9.47 µM: VMRC-RCZ
not listed: Kasumi 1
> 32 µM: all other assays above
